Experimental data taken from patent US20230330254A1 (Regeneron Pharmaceuticals, Inc., priority 2022, published 2023).
Like-named read-outs stand apart in the source and are kept apart here. Where a SMILES comes first, the peptide text is derived from it. [ ]: non-standard residue; d: D form. The star is where a group is joined. Bip(2'-Et,4'-O(CH2)4NH2) = CCc1cc(OCCCCN)ccc1-c1ccc(C[C@H](N)C(=O)O)cc1; Malonyl(2,2-Me2,histaminyl) = CC(C)(C(=O)NCCc1cnc[nH]1)C(=O)*; Nva(5-(3,5-Me2Ph)) = Cc1cc(C)cc(CCC[C@H](N)C(=O)O)c1; Ala(1H-tetrazol-5-yl) = N[C@@H](Cc1nnn[nH]1)C(=O)O; αMePhe(2-F) = C[C@](N)(Cc1ccccc1F)C(=O)O; Desaminohistidyl = O=C(CCc1c[nH]cn1)*; X3 = CC(C)(C(=O)*)c1ccn[nH]1; Aib = CC(C)(N)C(=O)O; NHPh = c1ccc(N*)cc1

Key:
[1] = Plasma stability of payloads and linker-payloads, human plasma; type: in vitro ADME; conditions: plasma, 2 μM, 37° C., read-out: Human plasma stability assay T½ (converted)
Protocol: The plasma stability of payloads and linker payloads of the disclosure were measured. For the assay, pooled frozen plasma (human, mouse or monkey) was thawed in cold water or a 37° C. water bath prior to experiment. Plasma was centrifuged at 4000 rpm for 5 min if any clots were observed, they were subsequently removed. If required, the pH was adjusted to 7.4±0.1. For the preparation of compounds and positive controls, a 1 mM intermediate solution was prepared by diluting 10 μL of their stock solution with 90 μL DMSO; a 1 mM intermediate solution of the positive control (Propantheline) was prepared by diluting 10 μL of its stock solution with 90 μL ultrapure water. […] 98 μL of plasma was spiked with 2 μL of dosing solution (100 μM) to achieve the final concentration of 2 μM in duplicate. Samples were then incubated at 37° C. in a water bath. […] At each time point, 400 μL of stop solution (200 ng/mL tolbutamide plus 200 ng/mL labetalol in 50% ACN/MeOH) was added to precipitate protein and mixed thoroughly. Sample plates were then centrifuged at 4,000 rpm for 10 min. An aliquot of supernatant (50 μL) was transferred from each well and mixed with 100 μL ultrapure water. The samples were then shaken at 800 rpm for approximately 10 min before submitting for LC-MS/MS analysis.

[2] = Plasma stability of payloads (t½)
human GLP1R [3] = target: T1, human GLP1R (Homo sapiens, UniProt P43220); assay: Luciferase reporter assay, HEK293/CRE-Luc/hGLP1R (Example 17); type: cell-based; parameters: engineered to express full-length human GLP1R, cynomolgus GLP1R; expressed in transfected cells; host or cells: HEK293/CRE-Luc; conditions: HEK293/CRE-Luc/hGLP1R; for S/N: highest RLU / RLU of untreated wells; for EC50: payloads and linker-payloads, experiments A-E, M2361 repeated in each, read-out: EC50; for Relative Potency (% M2361 EC50) / Relative Signal:Noise (% M2361): relative to M2361 of the same experiment
Method in brief: (§1)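 HEK293 cells carrying a CRE-driven firefly luciferase reporter were exposed to 3-fold serial dilutions of payloads or linker-payloads (12 points, 0.2% DMSO final) for 4–6 h, then luminescence was read. EC50 came from a four-parameter logistic fit; S/N is top RLU over untreated wells, and relative potency and S/N are referenced to M2361.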

HEK293/CRE-Luc cells [4] = assay: Luciferase reporter assay, HEK293/CRE-Luc cells without hGLP1R (Example 11); type: cell-based, human; conditions: Table 11; Experiment A; no hGLP1R expression
Source text: (§2) To test the activity of GLP1R agonist payloads, GLP1R agonist linker-payloads (LPs), and anti-GLP1R antibody tethered drug conjugates (ATDCs) of the disclosure, a cell-based cAMP responsive luciferase reporter assay was developed. To generate the assay cell line, the firefly luciferase gene was placed under the control of a cAMP response element (CRE) located upstream of a minimal promoter and transfected into HEK293 cells and referred to herein as HEK293/CRE-Luc cells.
(§3) Three-fold serial dilutions of free payloads or LPs were prepared in 100% DMSO, transferred to fresh assay media, and added to the cells at a final constant DMSO concentration of 0.2%. The last well in the plate served as a blank control containing only the assay media and 0.2% DMSO (untreated well) and was plotted as a continuation of the 3-fold serial dilution. Four to six hours later, luciferase activity was determined after the addition of One-Glo™ reagent (Promega, Cat #E6130) to each well. Relative light units (RLUs) were measured on an Envision luminometer (PerkinElmer) and EC50 values were determined using a four-parameter logistic equation over a 12-point dose response curve (GraphPad Prism). The signal to noise (S/N) was determined by taking the ratio of the highest RLU on the dose response curve to the RLU in the untreated wells.

HEK293/CRE-Luc cells [5] = assay: Luciferase reporter assay, HEK293/CRE-Luc cells without GLP1R (Example 17); type: cell-based, human; conditions: HEK293/CRE-Luc cells without hGLP1R, payloads and linker-payloads; for EC50: read-out: EC50
Method in brief: as §1

human GLP1R [6] = target: T1, human GLP1R; assay: Human GLP1R cAMP accumulation assay; type: cell-based; parameters: HEK293 cells over-expressing full length human GLP-1R were utilized; expressed in transfected cells; host or cells: HEK293 (HEK293/hGLP1R); conditions: HEK293/hGLP1R cells; Table 4; read-out: cAMP EC50
Method in brief: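 cAMP accumulation measured after 30 min at 23° C, with 500 μM IBMX in HEPES-buffered HBSS plus 0.1% BSA, in HEK293 cells expressing full-length hGLP-1R. Levels read by D2-cAMP/antibody immunoassay via standard curve, scaled between low and high controls. EC50 fitted four-parameter over a 10-point curve.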

human GLP1R [7] = target: T1, human GLP1R; assay: Luciferase reporter assay, HEK293/CRE-Luc/hGLP1R cells (Example 11); type: cell-based; parameters: engineered to express full-length human GLP1R, cynomolgus GLP1R; expressed in transfected cells; host or cells: HEK293/CRE-Luc; conditions: Table 11; Experiment A
Source text: as §2, §3
GLP1R agonist linker payloads were conjugated to anti-hGLP1R antibodies via N-terminal heavy or light chain Q tags. Several resulting anti-GLP1R antibody tethered drug conjugates (ATDCs) were tested for activity in the HEK293/CRE-Luc/hGLP1R reporter assay as described above for the free GLP1R payload and linker-payload agonists.

[8] = pH 7.4, tested time B (2 hrs per footnote)
[9] = pH 7.4, tested time A (1 day per footnote)

T1 sequence (P43220 24-463): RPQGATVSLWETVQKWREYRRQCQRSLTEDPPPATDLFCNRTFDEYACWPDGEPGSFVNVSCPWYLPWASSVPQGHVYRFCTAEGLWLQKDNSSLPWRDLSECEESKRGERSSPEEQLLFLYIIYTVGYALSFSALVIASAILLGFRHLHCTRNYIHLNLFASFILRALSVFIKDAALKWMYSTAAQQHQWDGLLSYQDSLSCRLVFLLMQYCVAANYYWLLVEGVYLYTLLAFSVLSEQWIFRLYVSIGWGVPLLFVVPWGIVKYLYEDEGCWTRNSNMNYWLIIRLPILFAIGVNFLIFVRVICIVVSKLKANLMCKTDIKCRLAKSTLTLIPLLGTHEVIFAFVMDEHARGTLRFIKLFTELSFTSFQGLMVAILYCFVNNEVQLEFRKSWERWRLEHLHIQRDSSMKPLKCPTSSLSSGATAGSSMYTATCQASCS

| Compound | half-life at 2 µM [1, 8] [h] | Plasma stability t½ [2] [h] | S/N (human GLP1R [3]) | EC50 (human GLP1R [3]) [nM] | Relative Potency (% M2361 EC50) (human GLP1R [3]) [%] | Relative Signal:Noise (% M2361) (human GLP1R [3]) [%] | EC50 (HEK293/CRE-Luc cells [4]) [nM] | HEK293/CRE-LUC S/N (HEK293/CRE-Luc cells [4]) | S/N (HEK293/CRE-Luc cells [5]) | EC50 (HEK293/CRE-Luc cells [5]) [nM] | EC50 (human GLP1R [6]) [nM] | EC50 (human GLP1R [7]) [nM] | HEK293/CRE-LUC/hGLP1R Relative Potency (% P8 EC50) (human GLP1R [7]) [%] | HEK293/CRE-LUC/hGLP1R S/N (human GLP1R [7]) | half-life at 2 µM [1, 9] [h] |
| --- | --- | --- | --- | --- | --- | --- | --- | --- | --- | --- | --- | --- | --- | --- | --- |
| CCc1cc(OCCCCN)ccc1-c1ccc(C[C@H](NC(=O)[C@H](CC(=O)O)NC(=O)[C@H](CO)NC(=O)[C@@H](NC(=O)[C@](C)(Cc2ccccc2F)NC(=O)[C@@H](NC(=O)CNC(=O)[C@@H](N)Cc2nn[nH]n2)[C@@H](C)O)[C@@H](C)O)C(=O)N[C@@H](CCCc2cc(C)cc(C)c2)C(N)=O)cc1 [P2] | 10.7 | 10.7 | 306.2 | 19 | 0.1 | 93.4 |  |  |  |  |  |  |  |  |  |
| CCc1cc(OCCCCN)ccc1-c1ccc(C[C@H](NC(=O)[C@H](CC(=O)O)NC(=O)[C@H](CO)NC(=O)[C@@H](NC(=O)[C@](C)(Cc2ccccc2F)NC(=O)[C@@H](NC(=O)CNC(=O)[C@H](Cc2nn[nH]n2)NC(=O)[C@H](C)NC(=O)[C@@H](N)Cc2cnc[nH]2)[C@@H](C)O)[C@@H](C)O)C(=O)N[C@@H](CCCc2cc(C)cc(C)c2)C(N)=O)cc1 [P10] (H-HA[Ala(1H-tetrazol-5-yl)]GT[αMePhe(2-F)]TSD[Bip(2'-Et,4'-O(CH2)4NH2)][Nva(5-(3,5-Me2Ph))]-NH2) | 1.83 |  | 45.1 | 0.014 | 38.0 | 68.6 | > 200 | 1.2 | 1.2 | > 200 | 0.047 | 0.014 | 38.0 | 45.1 |  |
| CCc1cc(OCCCCN)ccc1-c1ccc(C[C@H](NC(=O)[C@H](CC(=O)O)NC(=O)[C@H](CO)NC(=O)[C@@H](NC(=O)[C@](C)(Cc2ccccc2F)NC(=O)[C@@H](NC(=O)CNC(=O)[C@H](Cc2nn[nH]n2)NC(=O)C(C)(C)c2ccn[nH]2)[C@@H](C)O)[C@@H](C)O)C(=O)N[C@@H](CCCc2cc(C)cc(C)c2)C(N)=O)cc1 [P6] (X3-[Ala(1H-tetrazol-5-yl)]GT[αMePhe(2-F)]TSD[Bip(2'-Et,4'-O(CH2)4NH2)][Nva(5-(3,5-Me2Ph))]-NH2) |  | >57.8 | 60.7 | 0.602 | 0.9 | 92.3 | > 200 | 1.0 | 1.0 | > 200 | 0.853 | 0.602 | 0.9 | 60.7 | > 57.8 |
| CCc1cc(OCCCCN)ccc1-c1ccc(C[C@H](NC(=O)[C@H](CC(=O)O)NC(=O)[C@H](CO)NC(=O)[C@@H](NC(=O)[C@](C)(Cc2ccccc2F)NC(=O)[C@@H](NC(=O)CNC(=O)[C@H](Cc2nn[nH]n2)NC(=O)C(C)(C)C(=O)NCCc2cnc[nH]2)[C@@H](C)O)[C@@H](C)O)C(=O)N[C@@H](CCCc2cc(C)cc(C)c2)C(=O)Nc2ccccc2)cc1 [P23] ({Malonyl(2,2-Me2,histaminyl)}-[Ala(1H-tetrazol-5-yl)]GT[αMePhe(2-F)]TSD[Bip(2'-Et,4'-O(CH2)4NH2)][Nva(5-(3,5-Me2Ph))]-NHPh) | 10.7 |  | 57.1 | 0.00515 | 103.0 | 86.9 | > 200 | 1.6 | 1.6 | > 200 | 0.198 | 0.00515 | 103.0 | 57.1 |  |
| CCc1cc(OCCCCN)ccc1-c1ccc(C[C@H](NC(=O)[C@H](CC(=O)O)NC(=O)[C@H](CO)NC(=O)[C@@H](NC(=O)[C@](C)(Cc2ccccc2F)NC(=O)[C@@H](NC(=O)CNC(=O)[C@H](Cc2nn[nH]n2)NC(=O)C(C)(C)NC(=O)[C@@H](N)Cc2ccc(O)cc2)[C@@H](C)O)[C@@H](C)O)C(=O)N[C@@H](CCCc2cc(C)cc(C)c2)C(N)=O)cc1 [P19] (H-Y[Aib][Ala(1H-tetrazol-5-yl)]GT[αMePhe(2-F)]TSD[Bip(2'-Et,4'-O(CH2)4NH2)][Nva(5-(3,5-Me2Ph))]-NH2) |  | >57.8 | 78.5 | 0.0535 | 9.9 | 119.4 |  |  | 1.0 | > 200 | 0.156 |  |  |  | > 57.8 |
| CCc1cc(OCCCCN)ccc1-c1ccc(C[C@H](NC(=O)[C@H](CC(=O)O)NC(=O)[C@H](CO)NC(=O)[C@@H](NC(=O)[C@](C)(Cc2ccccc2F)NC(=O)[C@@H](NC(=O)CNC(=O)[C@H](Cc2nn[nH]n2)NC(=O)CNC(=O)CCc2c[nH]cn2)[C@@H](C)O)[C@@H](C)O)C(=O)N[C@@H](CCCc2cc(C)cc(C)c2)C(N)=O)cc1 [P12] (Desaminohistidyl-G[Ala(1H-tetrazol-5-yl)]GT[αMePhe(2-F)]TSD[Bip(2'-Et,4'-O(CH2)4NH2)][Nva(5-(3,5-Me2Ph))]-NH2) |  | >57.8 |  | 0.0114 |  |  |  |  |  |  | 0.039 | 0.0114 |  |  | > 57.8 |
